According to PubChem BioAssay AID1259407 (Chemical Carcinogenesis Research Information System (CCRIS), 2018):
Activity calls are given as the source filed them. How the calls were made is not given here.

Tested on: CCRIS mutagenicity, Ames/micronucleus/aberration tests
Assay: CCRIS mutagenicity studies
[1] = Test System: AMES SALMONELLA TYPHIMURIUM, Strain/Indicator: TA98, Metabolic Activation: NONE, Method: STANDARD PLATE
[2] = Test System: AMES SALMONELLA TYPHIMURIUM, Strain/Indicator: TA100, Metabolic Activation: NONE, Method: STANDARD PLATE
[3] = Test System: AMES SALMONELLA TYPHIMURIUM, Strain/Indicator: TA100, Metabolic Activation: NONE, Method: PREINCUBATION
[4] = Test System: AMES SALMONELLA TYPHIMURIUM, Strain/Indicator: TA1535, Metabolic Activation: NONE, Method: PREINCUBATION
[5] = Test System: AMES SALMONELLA TYPHIMURIUM, Strain/Indicator: TA1537, Metabolic Activation: NONE, Method: PREINCUBATION

C=C(C)C(=O)OCCCCOC(=O)C(=C)C
mutagenic call [1]: inactive; negative
mutagenic call (Test System: AMES SALMONELLA TYPHIMURIUM, Strain/Indicator: TA98, Metabolic Activation: RAT, LIVER, S-9, AROCLOR 1254, Method: STANDARD PLATE): inactive; negative
mutagenic call (Test System: AMES SALMONELLA TYPHIMURIUM, Strain/Indicator: TA98, Metabolic Activation: RAT, LIVER, S-9, SODIUM PHENOBARBITAL, Method: STANDARD PLATE): inactive; negative
mutagenic call [2]: inactive; negative
mutagenic call (Test System: AMES SALMONELLA TYPHIMURIUM, Strain/Indicator: TA100, Metabolic Activation: RAT, LIVER, S-9, AROCLOR 1254, Method: STANDARD PLATE): inactive; negative
mutagenic call (Test System: AMES SALMONELLA TYPHIMURIUM, Strain/Indicator: TA100, Metabolic Activation: RAT, LIVER, S-9, SODIUM PHENOBARBITAL, Method: STANDARD PLATE): inactive; negative
mutagenic call (Test System: AMES SALMONELLA TYPHIMURIUM, Strain/Indicator: TA1535, Metabolic Activation: NONE, Method: STANDARD PLATE): inactive; negative
mutagenic call (Test System: AMES SALMONELLA TYPHIMURIUM, Strain/Indicator: TA1535, Metabolic Activation: RAT, LIVER, S-9, AROCLOR 1254, Method: STANDARD PLATE): inactive; negative
mutagenic call (Test System: AMES SALMONELLA TYPHIMURIUM, Strain/Indicator: TA1535, Metabolic Activation: RAT, LIVER, S-9, SODIUM PHENOBARBITAL, Method: STANDARD PLATE): inactive; negative
mutagenic call (Test System: AMES SALMONELLA TYPHIMURIUM, Strain/Indicator: TA1537, Metabolic Activation: NONE, Method: STANDARD PLATE): inactive; negative
mutagenic call (Test System: AMES SALMONELLA TYPHIMURIUM, Strain/Indicator: TA1537, Metabolic Activation: RAT, LIVER, S-9, AROCLOR 1254, Method: STANDARD PLATE): inactive; negative
mutagenic call (Test System: AMES SALMONELLA TYPHIMURIUM, Strain/Indicator: TA1537, Metabolic Activation: RAT, LIVER, S-9, SODIUM PHENOBARBITAL, Method: STANDARD PLATE): inactive; negative
mutagenic call (Test System: AMES SALMONELLA TYPHIMURIUM, Strain/Indicator: TA1538, Metabolic Activation: NONE, Method: STANDARD PLATE): inactive; negative
mutagenic call (Test System: AMES SALMONELLA TYPHIMURIUM, Strain/Indicator: TA1538, Metabolic Activation: RAT, LIVER, S-9, AROCLOR 1254, Method: STANDARD PLATE): inactive; negative
mutagenic call (Test System: AMES SALMONELLA TYPHIMURIUM, Strain/Indicator: TA1538, Metabolic Activation: RAT, LIVER, S-9, SODIUM PHENOBARBITAL, Method: STANDARD PLATE): inactive; negative

Clc1ccc(C(c2ccc(Cl)cc2)C(Cl)(Cl)Cl)cc1
mutagenic call (Test System: AMES SALMONELLA TYPHIMURIUM, Strain/Indicator: TA97, Metabolic Activation: HAMSTER, LIVER, S-9, AROCLOR 1254 (10 OR 30%), Method: PREINCUBATION): inactive; negative
mutagenic call (Test System: AMES SALMONELLA TYPHIMURIUM, Strain/Indicator: TA97, Metabolic Activation: NONE, Method: PREINCUBATION): inactive; negative
mutagenic call (Test System: AMES SALMONELLA TYPHIMURIUM, Strain/Indicator: TA97, Metabolic Activation: RAT, LIVER, S-9, AROCLOR 1254 (10 OR 30%), Method: PREINCUBATION): inactive; negative
mutagenic call (Test System: AMES SALMONELLA TYPHIMURIUM, Strain/Indicator: TA98, Metabolic Activation: HAMSTER, LIVER, S-9, AROCLOR 1254 (10 OR 30%), Method: PREINCUBATION): inactive; negative
mutagenic call (Test System: AMES SALMONELLA TYPHIMURIUM, Strain/Indicator: TA98, Metabolic Activation: NONE, Method: PREINCUBATION): inactive; negative
mutagenic call (Test System: AMES SALMONELLA TYPHIMURIUM, Strain/Indicator: TA98, Metabolic Activation: RAT, LIVER, S-9, AROCLOR 1254 (10 OR 30%), Method: PREINCUBATION): inactive; negative
mutagenic call (Test System: AMES SALMONELLA TYPHIMURIUM, Strain/Indicator: TA100, Metabolic Activation: HAMSTER, LIVER, S-9, AROCLOR 1254 (10 OR 30%), Method: PREINCUBATION): inactive; negative
mutagenic call [3]: inactive; negative
mutagenic call (Test System: AMES SALMONELLA TYPHIMURIUM, Strain/Indicator: TA100, Metabolic Activation: RAT, LIVER, S-9, AROCLOR 1254 (10 OR 30%), Method: PREINCUBATION): inactive; negative
mutagenic call (Test System: AMES SALMONELLA TYPHIMURIUM, Strain/Indicator: TA1535, Metabolic Activation: HAMSTER, LIVER, S-9, AROCLOR 1254 (10 OR 30%), Method: PREINCUBATION): inactive; negative
mutagenic call [4]: inactive; negative
mutagenic call (Test System: AMES SALMONELLA TYPHIMURIUM, Strain/Indicator: TA1535, Metabolic Activation: RAT, LIVER, S-9, AROCLOR 1254 (10 OR 30%), Method: PREINCUBATION): inactive; negative
mutagenic call (Test System: AMES SALMONELLA TYPHIMURIUM, Strain/Indicator: TA1537, Metabolic Activation: HAMSTER, LIVER, S-9, AROCLOR 1254 (30%), Method: PREINCUBATION): inactive; negative
mutagenic call [5]: inactive; negative
mutagenic call (Test System: AMES SALMONELLA TYPHIMURIUM, Strain/Indicator: TA1537, Metabolic Activation: RAT, LIVER, S-9, AROCLOR 1254 (30%), Method: PREINCUBATION): inactive; negative
mutagenic call (Test System: CHINESE HAMSTER V-79, Strain/Indicator: V-79/8-AZAGUANINE, Metabolic Activation: NONE, Method: STANDARD PLATE): active; positive

O=C(O)c1ccco1
mutagenic call [1]: inactive; negative
mutagenic call [2]: inactive; negative

CN(C)S(=O)(=O)N(SC(F)(Cl)Cl)c1ccccc1
mutagenic call (Test System: AMES SALMONELLA TYPHIMURIUM, Strain/Indicator: TA102, Metabolic Activation: NONE, Method: STANDARD PLATE): inactive; negative
mutagenic call (Test System: AMES SALMONELLA TYPHIMURIUM, Strain/Indicator: TA102, Metabolic Activation: RAT, LIVER, S-9, PHENOBARBITAL, Method: STANDARD PLATE): inactive; negative
mutagenic call (Test System: AMES SALMONELLA TYPHIMURIUM, Strain/Indicator: TA104, Metabolic Activation: NONE, Method: STANDARD PLATE): inactive; negative
mutagenic call (Test System: AMES SALMONELLA TYPHIMURIUM, Strain/Indicator: TA104, Metabolic Activation: RAT, LIVER, S-9, PHENOBARBITAL, Method: STANDARD PLATE): inactive; negative
mutagenic call (Test System: E. COLI, Strain/Indicator: WP2HCR, Metabolic Activation: NONE, Method: STANDARD PLATE): active; positive
mutagenic call (Test System: E. COLI, Strain/Indicator: WP2HCR, Metabolic Activation: S-9 MIX, Method: STANDARD PLATE): inactive; negative

O=[N+]([O-])c1ccccc1CCl
mutagenic call (Test System: AMES SALMONELLA TYPHIMURIUM, Strain/Indicator: TA98, Metabolic Activation: HAMSTER, LIVER, S-9, AROCLOR 1254 (10%), Method: PREINCUBATION): inactive; negative
mutagenic call (Test System: AMES SALMONELLA TYPHIMURIUM, Strain/Indicator: TA98, Metabolic Activation: RAT, LIVER, S-9, AROCLOR 1254 (10%), Method: PREINCUBATION): inactive; negative
mutagenic call (Test System: AMES SALMONELLA TYPHIMURIUM, Strain/Indicator: TA98, Metabolic Activation: RAT, LIVER, S-9, KANECHLOR 500, Method: PREINCUBATION): active; positive
mutagenic call (Test System: AMES SALMONELLA TYPHIMURIUM, Strain/Indicator: TA100, Metabolic Activation: HAMSTER, LIVER, S-9, AROCLOR 1254 (10%), Method: PREINCUBATION): active; positive
mutagenic call [3]: active; positive
mutagenic call (Test System: AMES SALMONELLA TYPHIMURIUM, Strain/Indicator: TA100, Metabolic Activation: RAT, LIVER, S-9, AROCLOR 1254 (10%), Method: PREINCUBATION): active; positive
mutagenic call (Test System: AMES SALMONELLA TYPHIMURIUM, Strain/Indicator: TA100, Metabolic Activation: RAT, LIVER, S-9, KANECHLOR 500, Method: PREINCUBATION): active; positive
mutagenic call (Test System: AMES SALMONELLA TYPHIMURIUM, Strain/Indicator: TA1535, Metabolic Activation: HAMSTER, LIVER, S-9, AROCLOR 1254 (10%), Method: PREINCUBATION): active; positive
mutagenic call [4]: inactive; negative
mutagenic call (Test System: AMES SALMONELLA TYPHIMURIUM, Strain/Indicator: TA1535, Metabolic Activation: RAT, LIVER, S-9, AROCLOR 1254 (10%), Method: PREINCUBATION): active; positive
mutagenic call (Test System: AMES SALMONELLA TYPHIMURIUM, Strain/Indicator: TA1537, Metabolic Activation: HAMSTER, LIVER, S-9, AROCLOR 1254 (10%), Method: PREINCUBATION): inactive; negative
mutagenic call [5]: inactive; negative
mutagenic call (Test System: AMES SALMONELLA TYPHIMURIUM, Strain/Indicator: TA1537, Metabolic Activation: RAT, LIVER, S-9, AROCLOR 1254 (10%), Method: PREINCUBATION): inactive; negative
mutagenic call (Test System: AMES SALMONELLA TYPHIMURIUM, Strain/Indicator: TA1538, Metabolic Activation: NONE, Method: PREINCUBATION): inactive; negative

CS(=O)(=O)Nc1ccc([N+](=O)[O-])cc1Oc1ccccc1
mutagenic call (End Point: IN VIVO CHROMOSOMAL ABERRATIONS, Test System: BONE MARROW CELLS, Species: MOUSE, Strain/Sex: SWISS/MALE, FEMALE, Route: GAVAGE (TEST MATERIAL SOLVENT: WATER)): active; positive (structural changes)
